The values that follow come from US10690666B2, “Methods and compositions for modulating TH-GM cell function” (National University of Singapore, priority 2014, dated 2020).

The test system of experiment [1] is STAT5. Kind of experiment: IL-7-induced STAT5 activation (Tyr694 phosphorylation) in CD4+ T cells, immunoblotting. It is filed as cell-based, mouse. Particulars: pre-incubated 1 h, IL-7 30 min. As for the experimental part: (§1) FIGS. […] depict inhibition of STAT5 activation suppresses TH-GM cell differentiation in vitro. CD4^+ T cells were pre-incubated with STAT5 inhibitor (Calbiochem) (FIG. 22A) or JAK3 inhibitor (FIG. 22B) at indicated concentrations or vehicle (−) for 1 h before stimulation with IL-7 for 30 min. Activation (Tyr694 phosphorylation) of STAT5 was determined by immunoblotting. CD4^+ T cells were pre-incubated with STAT5 inhibitor at indicated concentrations or vehicle (−) for 1 h before stimulation with IL-6 for 30 min. Activation (Tyr705 phosphorylation) of STAT3 was determined by immunoblotting (FIG. 22C). In FIG. 22D, CD4^+ T cells were pre-incubated with STAT5 inhibitor at indicated concentrations or vehicle (−) for 1 h before stimulation with IFN-γ for 30 min. Activation (Tyr701 phosphorylation) of STAT1 was determined by immunoblotting. In FIG. 22E, naïve CD4^+ T cells were isolated and activated under neutral condition or TH-GM cell-favoring condition with the addition of different concentrations of STAT5 inhibitor for 3 days. GM-CSF and IFN-γ expression was analyzed by intracellular cytokine staining and flow cytometry.
(§2) The effect of disrupting STAT5 activation by chemical inhibitor was examined to explore possible methods of treating autoimmune neuroinflammation. The phosphorylation on the key tyrosine residue in SH2 domain is crucial for STAT5 activation and function. […]
(Immunoblotting shows a protein as a band on a membrane.)

Experiment [2] deals with T1, STAT3 (Mus musculus, UniProt P42227).
T1 construct: endogenous in cells; host or cells: primary mouse CD4+ T cells (spleen and lymph nodes)
T1 sequence (P42227 whole entry): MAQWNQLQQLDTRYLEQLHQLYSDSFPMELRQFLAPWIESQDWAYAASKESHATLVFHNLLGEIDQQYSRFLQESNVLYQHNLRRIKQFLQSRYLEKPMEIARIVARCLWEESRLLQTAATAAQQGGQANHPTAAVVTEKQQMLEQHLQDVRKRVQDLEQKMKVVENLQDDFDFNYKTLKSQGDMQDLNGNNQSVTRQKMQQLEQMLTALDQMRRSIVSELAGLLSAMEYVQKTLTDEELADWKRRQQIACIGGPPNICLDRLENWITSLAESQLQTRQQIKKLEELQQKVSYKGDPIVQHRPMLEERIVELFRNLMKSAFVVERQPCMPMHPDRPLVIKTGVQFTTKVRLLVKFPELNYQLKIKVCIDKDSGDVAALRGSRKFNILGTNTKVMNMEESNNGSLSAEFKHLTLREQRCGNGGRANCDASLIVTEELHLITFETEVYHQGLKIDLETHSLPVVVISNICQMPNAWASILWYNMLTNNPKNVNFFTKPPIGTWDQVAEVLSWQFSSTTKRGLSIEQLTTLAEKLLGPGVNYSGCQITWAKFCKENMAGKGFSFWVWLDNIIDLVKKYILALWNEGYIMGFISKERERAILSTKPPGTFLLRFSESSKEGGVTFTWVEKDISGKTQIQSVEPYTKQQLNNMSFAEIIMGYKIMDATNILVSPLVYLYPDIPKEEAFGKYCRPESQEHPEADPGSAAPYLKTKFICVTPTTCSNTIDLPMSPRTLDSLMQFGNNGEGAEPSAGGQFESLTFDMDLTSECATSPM
Kind of experiment: IL-6-induced STAT3 activation (Tyr705 phosphorylation) in CD4+ T cells, immunoblotting. In kind it is cell-based. Particulars: 50 or 100 μM; IL-6 30 min. As for the experimental part: as §1, §2

Experiment [3] addresses T2, STAT1 (Mus musculus, UniProt P42225).
T2 construct: endogenous in cells; host or cells: primary mouse CD4+ T cells (spleen and lymph nodes)
T2 sequence (P42225 1-749): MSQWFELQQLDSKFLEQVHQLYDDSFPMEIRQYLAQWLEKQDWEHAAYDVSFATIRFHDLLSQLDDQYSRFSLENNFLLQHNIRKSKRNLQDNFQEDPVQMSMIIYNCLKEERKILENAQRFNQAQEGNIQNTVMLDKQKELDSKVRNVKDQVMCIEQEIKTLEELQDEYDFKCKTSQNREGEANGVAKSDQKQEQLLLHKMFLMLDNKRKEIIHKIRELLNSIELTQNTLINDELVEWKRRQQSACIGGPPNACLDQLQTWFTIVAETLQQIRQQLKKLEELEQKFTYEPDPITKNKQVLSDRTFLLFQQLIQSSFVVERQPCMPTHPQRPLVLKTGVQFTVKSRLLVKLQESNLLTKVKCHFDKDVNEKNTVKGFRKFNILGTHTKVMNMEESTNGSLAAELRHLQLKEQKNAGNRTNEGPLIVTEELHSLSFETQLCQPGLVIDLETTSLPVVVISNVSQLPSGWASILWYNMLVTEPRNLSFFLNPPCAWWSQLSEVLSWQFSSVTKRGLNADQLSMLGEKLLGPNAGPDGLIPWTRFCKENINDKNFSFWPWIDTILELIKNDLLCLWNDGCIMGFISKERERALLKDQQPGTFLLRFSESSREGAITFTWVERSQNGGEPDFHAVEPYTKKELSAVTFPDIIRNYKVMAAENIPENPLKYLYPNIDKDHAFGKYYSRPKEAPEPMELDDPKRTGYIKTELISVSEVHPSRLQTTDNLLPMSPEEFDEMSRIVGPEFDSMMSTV
Kind of experiment: IFN-γ-induced STAT1 activation (Tyr701 phosphorylation) in CD4+ T cells, immunoblotting. It is filed as cell-based. The settings on record: 50 or 100 μM; IFN-γ 30 min. As for the experimental part: as §1, §2

Experiment [4] has as its system naïve CD4+ T cells. Kind of experiment: In vitro TH-GM (GM-CSF-expressing TH) differentiation from naïve CD4+ T cells. In kind it is cell-based, mouse. Particulars: TH-GM cell-favoring condition, inhibitor 3 days.
Procedure: Naïve CD4^+ T cells were primed with plate-bound anti-CD3 and soluble anti-CD28 in the presence of a combination of various cytokines and neutralizing antibodies as indicated. GM-CSF, IL-17 and IFN-γ expression was analyzed by intracellular staining (FIG. 13A) or RT-PCR (FIG. 13B)
GM-CSF and IFN-γ expression in naive CD4^+ T cells activated for 72 h with anti-CD3 alone or plus anti-CD28 (FIG. 14A). In FIG. 14B, sorted naïve CD4^+ T cells were stimulated with anti-CD3 and anti-CD28 in the presence of neutralizing antibodies against IL-12 and IFN-γ without or with the addition of IL-6. The frequencies of GM-CSF^+ and IL-17^+ cells were measured by intracellular staining (FIG. 14B). In FIG. 14C, naïve CD4^+ T cells from Stat3^+/+ and Stat3^−/− mice were polarized under conditions as indicated for 72 h. The frequencies of GM-CSF^+ and IL-17^+ cells were analyzed. In FIG. 14D, naïve CD4^+ T cells were activated with anti-CD3 and anti-CD28 in the presence of IL-2 or anti-IL-2. The frequencies of GM-CSF^+, IL-17^+ and IFN-γ^+ cells were analyzed.
Naïve CD4^+ T cells were primed with plate-bound anti-CD3 and soluble anti-CD28 in the presence of various concentration of IL-7 as indicated. GM-CSF and IFN-γ expression was analyzed by intracellular staining (FIG. 15A) or ELISA (FIG. 15B). In FIGS. 15C and 15D, Stat5^+/+ and Stat5^−/− naïve CD4^+ T cells were activated with anti-CD3 and anti-CD28 in the presence IL-7 for 3 days. GM-CSF, IL-17 and IFN-γ expression was analyzed by intracellular cytokine staining (FIG. 15C). GM-CSF secretion was measured by ELISA (FIG. 15D).
Experiment [5] relates to naïve CD4+ T cells. Kind of experiment: In vitro TH1 differentiation. It is filed as cell-based, mouse. Particulars: data not shown. As for the experimental part:
CD4^+ T cells were obtained from spleens and lymph nodes by positive selection and magnetic separation (Miltenyi Biotech), followed by purification of naïve CD4^+ T cell population (CD4^+CD25^−CD62L^hiCD44^lo) sorted with FACS Aria. Naïve CD4^+ T cells were stimulated with plate-bound anti-CD3 (3 μg/ml; BD Pharmingen) and anti-CD28 (1 μg/ml; BD Pharmingen) in presence of different combinations of neutralizing antibodies and cytokines for 3˜4 days: for neutral conditions, no addition of any cytokine or neutralizing antibody; for TH1 conditions, IL-12 (10 ng/ml), and anti-IL-4 (10 μg/ml, BD Pharmingen); for TH17 conditions, hTGF-β (3 ng/ml), IL-6 (20 ng/ml), anti-IFN-γ (10 μg/ml, eBioscience), and anti-IL-4 (10 μg/ml); for an alternative TH17 conditions, IL-6 (20 ng/ml), IL-23 (10 ng/ml), IL-1β (10 ng/ml), anti-IFN-γ (10 μg/ml), and anti-IL-4 (10 μg/ml). For GM-CSF-expressing cell differentiation, naïve CD4^+ T cells were stimulated with plate-bound anti-CD3 (2 μg/ml) and soluble anti-D28 (1 μg/ml) with the addition of IL-7 and/or anti-IFN-γ (10 μg/ml) as indicated. All cytokines were obtained from R&D Systems. […] Cells were acquired on the LSR II (BD Biosciences) and analyzed with FlowJo software (Tree Star). […]

Experiment [6] has as its system naïve CD4+ T cells. Kind of experiment: In vitro TH17 differentiation. In kind it is cell-based, mouse. The settings on record: data not shown. As for the experimental part: CD4^+ T cells were obtained from spleens and lymph nodes by positive selection and magnetic separation (Miltenyi Biotech), followed by purification of naïve CD4^+ T cell population (CD4^+CD25^−CD62L^hiCD44^lo) sorted with FACS Aria. Naïve CD4^+ T cells were stimulated with plate-bound anti-CD3 (3 μg/ml; BD Pharmingen) and anti-CD28 (1 μg/ml; BD Pharmingen) in presence of different combinations of neutralizing antibodies and cytokines for 3˜4 days: for neutral conditions, no addition of any cytokine or neutralizing antibody; for TH1 conditions, IL-12 (10 ng/ml), and anti-IL-4 (10 μg/ml, BD Pharmingen); for TH17 conditions, hTGF-β (3 ng/ml), IL-6 (20 ng/ml), anti-IFN-γ (10 μg/ml, eBioscience), and anti-IL-4 (10 μg/ml); for an alternative TH17 conditions, IL-6 (20 ng/ml), IL-23 (10 ng/ml), IL-1β (10 ng/ml), anti-IFN-γ (10 μg/ml), and anti-IL-4 (10 μg/ml). […] Cells were acquired on the LSR II (BD Biosciences) and analyzed with FlowJo software (Tree Star).
Stat5 deletion (Cd4-cre; Stat5^f/−) mice was reported to develop peripheral lymphopenia, with a reduction of both CD4^+ and CD8^+ T cells (Yao et al., 2006). […] Furthermore, increased frequencies of IL-17^+ and IFN-γ^+ cells were detected among CD4^+ T cells in spleens of Stat5^−/− mice (FIG. 4C), which further support the idea that the resistance to EAE in Stat5^−/− mice is likely independent of TH1 and TH17 generation. […]

Experiment [7] concerns EAE mice. Kind of experiment: EAE (MOG35-55/CFA) model. It is filed as in vivo.
Procedure: (FIG. 23A) Clinical EAE scores of wild-type control mice (n=5) or administrated with STAT5 inhibitor (Calbiochem). Arrow indicates the treatment points. (FIG. 23B) Histology of spinal cords at day 18 of EAE mice receiving different treatments. (FIG. 23C) Intracellular staining and flow cytometry of CNS-infiltrating CD4^+ T cells at peak of disease. (FIG. 23D) Whole CNS was harvest for RNA extraction. GM-CSF mRNA expression was analyzed by RT-PCR. Data represent two independent experiments. *p<0.05.
EAE induction procedures were modified from previous report^3. For active EAE induction, mice were immunized in two sites on the hind flanks with 300 μg MOG35-55 in 100 μl CFA containing 5 mg/ml heat-killed M. tuberculosis strain H37Ra (Difco) at day 0 and day 7. Pertussis toxin (List Bio Lab) was administrated intraperitoneally at the dosage of 500 ng per mouse at day 1 and day 8. For single MOG35-55/CFA immunization, the similar procedure was performed at day 0 and day 1 only. In an alternative active EAE induction, LPS (600 μg/ml in IFA, O111:B4 from Sigma) was used as adjuvant. […] Clinical symptoms were scored as follows: 0, no clinical sign; 1, loss of tail tone; 2, wobbly gait; 3, hind limb paralysis; 4, hind and fore limb paralysis; 5, death. […] For analysis of CNS-infiltrating cells, both spinal cord and brain were collected and minced from perfused mice, and mononuclear cells were isolated by gradient centrifuge with Percoll (GE Healthcare).
To explore the therapeutic effect of targeting STAT5 activation in EAE disease, the commercial STAT5 inhibitor was administered to wild-type mice intraperitoneally every other day after disease onset. Development of paralysis was assessed by daily assignment of clinical scores.
Experiment [8] relates to STAT5. Particulars: Muller et al., 2008; cited from earlier work.

Consider `O=C(N/N=C/c1coc2ccccc2c1=O)c1cccnc1` [STAT5 inhibitor], for which the “inhibitory effect on STAT5 activation upon IL-7 stimulation” value in experiment [1] (50 μM) was “about 50%”; in experiment [1] (FIG. 22A, 22B), “low affinity and thus required a high concentration to fully block STAT5 activation”. Also, the “inhibitory effect on STAT3 activation” value in experiment [2] was “minimal inhibitory effect”. The “inhibitory effect on STAT1 activation” value in experiment [3] is on record as “minimal inhibitory effect”. Further, the TH-GM differentiation result in experiment [4] is listed as “suppressed TH-GM differentiation in a dosage-dependent manner”. Moreover, in experiment [5], the TH1 differentiation result is listed as “Reduced TH1 differentiation”. Moreover, the TH17 differentiation result in experiment [6] was “not suppressed”. Further, in experiment [7] (inhibitor-treated EAE mice, peak of disease), the “GM-CSF production in CNS-infiltrating CD4+ T cells” value is “reduced GM-CSF production”. Further, the “EAE severity (clinical scores)” value in experiment [7] (wild-type mice, intraperitoneally every other day after disease onset) is on record as “ameliorated EAE severity”. In addition, the “immune cell infiltration in the CNS” value in experiment [7] (wild-type mice, intraperitoneally every other day after disease onset, day 18) is “reduced immune cell infiltration in the CNS”. The “disruption of tyrosine phosphorylation and DNA binding of STAT5” value in experiment [8] was “selectively disrupt tyrosine phosphorylation and DNA binding of STAT5”.
